Test results reported in PubChem BioAssay (NCI).
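1) Cells in 96-well plates. 2) Compound, 48 h, 5 concentrations. 3) Linear interpolation between surrounding doses. 4) Unreached endpoint = highest concentration. GI50 is the concentration that inhibits growth by half. The concentration for full growth arrest is given as TGI.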

tested on: IGROV1 ovarian; test: inhibition of tumour cell growth, NCI panel, 48 h

Which results are given for O=[N+]([O-])c1ccc(C=C2C(Cl)=C(Cl)C(Cl)=C2Cl)cc1?
GI50: 2 µM; TGI: 4.41 µM

For COc1ccccc1C1C(C(=O)O)=C(CO)Oc2cc3c(cc21)OCO3 (stereo not given), which TGI is on record?
Its TGI is > 100 µM.

With Cc1ccc2c(n1)C(=O)c1[nH]c3ccccc3c1C2=O as the compound, how does the GI50 read?
The GI50 was 0.0819 µM.

What about the TGI of the same compound?
The TGI was 4.3 µM.

With O=C(OC(=O)n1ccc2ccccc21)n1ccc2ccccc21 as the compound, how does the TGI read?
Its TGI is > 100 µM.

Which TGI does the source give for C=CC(Br)(CBr)CCC(Cl)C(C)C (stereo not given) here?
The TGI was 8.43 µM.

With Cc1nc(N)sc1-c1ccnc(Nc2ccc(N3CCOCC3)cc2)n1 as the compound, how does the GI50 read?
Its GI50 is 0.846 µM.

What about the TGI of the same compound?
The TGI was > 33.7 µM.

For CC(=O)Oc1cccc2c(/C=N/NC(N)=S)ncc(C)c12, which TGI is on record?
The TGI was 20.9 µM.

Which TGI does the source give for CC(=O)OC1CCC2(C)C3CCC4(C)C(c5ccc(=O)oc5)CC5OC54C3CCC2(O)C1 (stereo not given) here?
Its TGI is 21 µM.

Which TGI does the source give for Cc1cc(=O)[nH]c(NN2C(Cl)C(=O)C2c2cccc(O)c2)n1 (stereo not given) here?
Its TGI is > 100 µM.

Cc1ccc(S(=O)(=O)Oc2cc(-c3ccccc3)nc3ccccc23)cc1 was tested. Which TGI did it give?
Its TGI is 22.2 µM.

For NNC(N)Nc1ccccc1 (stereo not given), which TGI is on record?
Its TGI is > 100 µM.

CC1CC=CC(O)C1 (stereo not given) was tested. Which TGI did it give?
Its TGI is > 100 µM.

How did the TGI turn out when c1ccc(N=C2SC(=NC3CCCCC3)N(C3CCCCC3)C2=Nc2ccccc2)cc1 was run?
Its TGI is > 100 µM.

With O=NN(CCCl)C(=O)NC1CCSc2ccccc21 (stereo not given) as the compound, how does the TGI read?
The TGI was > 100 µM.

tested on: LOX IMVI melanoma; test: inhibition of tumour cell growth, NCI panel, 48 h

How did the GI50 turn out when O=[N+]([O-])c1ccc(C=C2C(Cl)=C(Cl)C(Cl)=C2Cl)cc1 was run?
The GI50 was 2 µM.

What about the TGI of the same compound?
The TGI was 4.3 µM.

COc1ccccc1C1C(C(=O)O)=C(CO)Oc2cc3c(cc21)OCO3 (stereo not given) was tested. Which TGI did it give?
Its TGI is > 100 µM.

How did the GI50 turn out when Cc1ccc2c(n1)C(=O)c1[nH]c3ccccc3c1C2=O was run?
Its GI50 is 1.01 µM.

And the TGI?
Its TGI is 24.8 µM.

With O=C(OC(=O)n1ccc2ccccc21)n1ccc2ccccc21 as the compound, how does the TGI read?
The TGI was > 100 µM.

For C=CC(Br)(CBr)CCC(Cl)C(C)C (stereo not given), which TGI is on record?
Its TGI is 2.46 µM.

For Cc1nc(N)sc1-c1ccnc(Nc2ccc(N3CCOCC3)cc2)n1, which GI50 is on record?
Its GI50 is 0.907 µM.

What about the TGI of the same compound?
The TGI was > 100 µM.

CC(=O)Oc1cccc2c(/C=N/NC(N)=S)ncc(C)c12 was tested. Which TGI did it give?
Its TGI is 8.98 µM.

With CC(=O)OC1CCC2(C)C3CCC4(C)C(c5ccc(=O)oc5)CC5OC54C3CCC2(O)C1 (stereo not given) as the compound, how does the TGI read?
The TGI was 16.5 µM.

With Cc1cc(=O)[nH]c(NN2C(Cl)C(=O)C2c2cccc(O)c2)n1 (stereo not given) as the compound, how does the TGI read?
The TGI was > 100 µM.

For Cc1ccc(S(=O)(=O)Oc2cc(-c3ccccc3)nc3ccccc23)cc1, which TGI is on record?
Its TGI is > 78.5 µM.

Which TGI does the source give for CC1CC=CC(O)C1 (stereo not given) here?
The TGI was > 100 µM.

How did the TGI turn out when O=NN(CCCl)C(=O)NC1CCSc2ccccc21 (stereo not given) was run?
Its TGI is > 100 µM.

tested on: NCI-H23 lung; test: inhibition of tumour cell growth, NCI panel, 48 h

How did the GI50 turn out when O=[N+]([O-])c1ccc(C=C2C(Cl)=C(Cl)C(Cl)=C2Cl)cc1 was run?
Its GI50 is 2.05 µM.

And the TGI?
Its TGI is 5.16 µM.

For COc1ccccc1C1C(C(=O)O)=C(CO)Oc2cc3c(cc21)OCO3 (stereo not given), which TGI is on record?
Its TGI is > 100 µM.

How did the GI50 turn out when Cc1ccc2c(n1)C(=O)c1[nH]c3ccccc3c1C2=O was run?
Its GI50 is 0.687 µM.

What about the TGI of the same compound?
Its TGI is 3.79 µM.

How did the TGI turn out when O=C(OC(=O)n1ccc2ccccc21)n1ccc2ccccc21 was run?
The TGI was > 100 µM.

For C=CC(Br)(CBr)CCC(Cl)C(C)C (stereo not given), which TGI is on record?
Its TGI is 8.82 µM.

What does the source list for Cc1nc(N)sc1-c1ccnc(Nc2ccc(N3CCOCC3)cc2)n1?
GI50: 1.6 µM; TGI: > 100 µM

Which TGI does the source give for CC(=O)Oc1cccc2c(/C=N/NC(N)=S)ncc(C)c12 here?
Its TGI is 13.4 µM.

How did the TGI turn out when CC(=O)OC1CCC2(C)C3CCC4(C)C(c5ccc(=O)oc5)CC5OC54C3CCC2(O)C1 (stereo not given) was run?
The TGI was 2.98 µM.

Cc1cc(=O)[nH]c(NN2C(Cl)C(=O)C2c2cccc(O)c2)n1 (stereo not given) was tested. Which TGI did it give?
The TGI was > 100 µM.

Which TGI does the source give for Cc1ccc(S(=O)(=O)Oc2cc(-c3ccccc3)nc3ccccc23)cc1 here?
Its TGI is 12.2 µM.

With NNC(N)Nc1ccccc1 (stereo not given) as the compound, how does the TGI read?
Its TGI is > 100 µM.

For CC1CC=CC(O)C1 (stereo not given), which TGI is on record?
Its TGI is > 100 µM.

Which TGI does the source give for c1ccc(N=C2SC(=NC3CCCCC3)N(C3CCCCC3)C2=Nc2ccccc2)cc1 here?
The TGI was > 100 µM.

O=NN(CCCl)C(=O)NC1CCSc2ccccc21 (stereo not given) was tested. Which TGI did it give?
The TGI was > 100 µM.

tested on: OVCAR-3 ovarian; test: inhibition of tumour cell growth, NCI panel, 48 h

O=[N+]([O-])c1ccc(C=C2C(Cl)=C(Cl)C(Cl)=C2Cl)cc1 was tested. Which GI50 did it give?
Its GI50 is 1.83 µM.

And the TGI?
Its TGI is 3.46 µM.

For COc1ccccc1C1C(C(=O)O)=C(CO)Oc2cc3c(cc21)OCO3 (stereo not given), which TGI is on record?
Its TGI is > 100 µM.

What does the source list for Cc1ccc2c(n1)C(=O)c1[nH]c3ccccc3c1C2=O?
GI50: 1.26 µM; TGI: 5.72 µM

With O=C(OC(=O)n1ccc2ccccc21)n1ccc2ccccc21 as the compound, how does the TGI read?
Its TGI is > 100 µM.

How did the TGI turn out when C=CC(Br)(CBr)CCC(Cl)C(C)C (stereo not given) was run?
The TGI was 4.13 µM.

With Cc1nc(N)sc1-c1ccnc(Nc2ccc(N3CCOCC3)cc2)n1 as the compound, how does the GI50 read?
The GI50 was 7.37 µM.

And the TGI?
The TGI was > 100 µM.

CC(=O)Oc1cccc2c(/C=N/NC(N)=S)ncc(C)c12 was tested. Which TGI did it give?
The TGI was 32.3 µM.

With CC(=O)OC1CCC2(C)C3CCC4(C)C(c5ccc(=O)oc5)CC5OC54C3CCC2(O)C1 (stereo not given) as the compound, how does the TGI read?
The TGI was 2.29 µM.

How did the TGI turn out when Cc1cc(=O)[nH]c(NN2C(Cl)C(=O)C2c2cccc(O)c2)n1 (stereo not given) was run?
Its TGI is 27.4 µM.

How did the TGI turn out when Cc1ccc(S(=O)(=O)Oc2cc(-c3ccccc3)nc3ccccc23)cc1 was run?
Its TGI is 5.73 µM.

Which TGI does the source give for NNC(N)Nc1ccccc1 (stereo not given) here?
Its TGI is > 100 µM.

For CC1CC=CC(O)C1 (stereo not given), which TGI is on record?
Its TGI is > 100 µM.

With c1ccc(N=C2SC(=NC3CCCCC3)N(C3CCCCC3)C2=Nc2ccccc2)cc1 as the compound, how does the TGI read?
The TGI was > 100 µM.

With O=NN(CCCl)C(=O)NC1CCSc2ccccc21 (stereo not given) as the compound, how does the TGI read?
The TGI was > 100 µM.

tested on: OVCAR-4 ovarian; test: inhibition of tumour cell growth, NCI panel, 48 h

O=[N+]([O-])c1ccc(C=C2C(Cl)=C(Cl)C(Cl)=C2Cl)cc1 was tested. Which GI50 did it give?
Its GI50 is 2.42 µM.

What about the TGI of the same compound?
Its TGI is 6.1 µM.

How did the GI50 turn out when Cc1ccc2c(n1)C(=O)c1[nH]c3ccccc3c1C2=O was run?
Its GI50 is 1.13 µM.

And the TGI?
Its TGI is 2.35 µM.

For O=C(OC(=O)n1ccc2ccccc21)n1ccc2ccccc21, which TGI is on record?
The TGI was > 100 µM.

C=CC(Br)(CBr)CCC(Cl)C(C)C (stereo not given) was tested. Which TGI did it give?
The TGI was 3.29 µM.

Which results are given for Cc1nc(N)sc1-c1ccnc(Nc2ccc(N3CCOCC3)cc2)n1?
GI50: > 21.7 µM; TGI: > 100 µM

CC(=O)Oc1cccc2c(/C=N/NC(N)=S)ncc(C)c12 was tested. Which TGI did it give?
Its TGI is 38.6 µM.

Which TGI does the source give for CC(=O)OC1CCC2(C)C3CCC4(C)C(c5ccc(=O)oc5)CC5OC54C3CCC2(O)C1 (stereo not given) here?
The TGI was 5.61 µM.

Which TGI does the source give for Cc1cc(=O)[nH]c(NN2C(Cl)C(=O)C2c2cccc(O)c2)n1 (stereo not given) here?
Its TGI is > 100 µM.

Which TGI does the source give for Cc1ccc(S(=O)(=O)Oc2cc(-c3ccccc3)nc3ccccc23)cc1 here?
Its TGI is 16.2 µM.

For NNC(N)Nc1ccccc1 (stereo not given), which TGI is on record?
Its TGI is > 100 µM.

CC1CC=CC(O)C1 (stereo not given) was tested. Which TGI did it give?
Its TGI is > 100 µM.
